# Measured values published in PubChem BioAssay AID504458 (NMMLSC, 2011).
# The source made the active and inactive calls. No rule for the calls is given here.
# Target: General amino acid permease AGP1 (Saccharomyces cerevisiae (strain ATCC 204508 / S288c)) (UniProt P25376)
# Assay: AGP1-GFP fusion level modulation in yeast, dose response, TOR pathway, S. cerevisiae, flow cytometry, KU SAR set 2, multiplex (AID 504458)
# Conditions: flow cytometry fluorescence, 3 h
# Chain of General amino acid permease AGP1 (Saccharomyces cerevisiae (strain ATCC 204508 / S288c)) (P25376 whole entry, looked up, the tested form may be a part): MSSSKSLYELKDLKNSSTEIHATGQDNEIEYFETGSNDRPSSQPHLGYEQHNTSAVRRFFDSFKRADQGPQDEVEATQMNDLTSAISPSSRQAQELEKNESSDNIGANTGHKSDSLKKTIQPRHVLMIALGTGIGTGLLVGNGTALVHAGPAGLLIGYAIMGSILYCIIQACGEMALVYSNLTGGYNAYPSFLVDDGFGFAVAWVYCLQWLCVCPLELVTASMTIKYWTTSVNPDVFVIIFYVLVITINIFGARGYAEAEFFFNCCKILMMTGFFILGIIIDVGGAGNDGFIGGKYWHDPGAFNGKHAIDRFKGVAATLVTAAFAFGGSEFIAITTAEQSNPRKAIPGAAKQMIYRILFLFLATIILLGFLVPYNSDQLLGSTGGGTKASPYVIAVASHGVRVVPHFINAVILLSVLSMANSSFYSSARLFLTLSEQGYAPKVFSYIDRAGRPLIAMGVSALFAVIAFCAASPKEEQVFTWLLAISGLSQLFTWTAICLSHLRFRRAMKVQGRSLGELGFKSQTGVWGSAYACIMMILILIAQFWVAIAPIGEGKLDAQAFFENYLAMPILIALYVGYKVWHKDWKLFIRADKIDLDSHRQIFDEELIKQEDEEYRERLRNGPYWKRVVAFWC
row,Compound,EC50
1,CCNc1nc(NC2CCCCC2)c([N+](=O)[O-])c(N2CCOCC2)n1,inactive
2,CNc1nc(N)c([N+](=O)[O-])c(Nc2cccc(Oc3ccccc3)c2)n1,inactive
3,Cc1cc(Nc2cc(-c3ccccc3)nc(NCc3ccccc3)n2)n[nH]1,inactive
4,COc1ccccc1-c1cc(Nc2cc(C)[nH]n2)nc(NCc2ccccc2)n1,inactive
5,Cc1cc(Nc2cc(Nc3ccccc3)nc(NCc3ccccc3)n2)n[nH]1,inactive
6,CNc1nc(N)cc(Nc2ccccc2F)n1,inactive
7,CNc1nc(NC)c([N+](=O)[O-])c(Nc2cccc(Cl)c2)n1,inactive
8,CNc1nc(N)cc(Oc2cccc(Cl)c2)n1,inactive

# The next lines start with the values.
row,EC50,Compound
1,inactive,CNc1nc(N)cc(Nc2cccc(Cl)c2)n1
2,9.69 µM,CCNc1nc(N)c([N+](=O)[O-])c(Nc2cccc(Cl)c2)n1
3,inactive,CNc1nc(N)c([N+](=O)[O-])c(Nc2ccccc2Br)n1
4,inactive,CCOC(=O)c1c(N)nc(NC)nc1Nc1cccc(F)c1
5,inactive,CNc1nc(N)c(C(=O)c2ccc(C)c(C)c2)c(Nc2cccc(Cl)c2)n1
6,inactive,O=[N+]([O-])c1c(NC2CCCCC2)nc(NCc2ccccc2)nc1N1CCOCC1
7,inactive,COC(=O)c1cccc(-c2cc(Nc3cc(C)[nH]n3)nc(NCc3ccccc3)n2)c1
